For data set [1], the system named is Caco-2 (human colon adenocarcinoma). In words: MTT antiproliferative assay, 48 h. Type of data set: cell-based. Particulars: for IC50: Homo sapiens, Caco-2, 48-hour exposition, read-out: Cytotoxicity, IC50, µM CaCo-2. The method, then: (§1) About 2000-4000 cells per well (depending on line nature) were placed in 96-well plates and after 24 h compounds were added to the wells. Untreated cells were used as a control. The plates were incubated for 48 h, 37° C., 5% CO2. The number of surviving cells was determined using 3-(4,5-dimethylthiazol-2-yl)-2,5-diphenyltetrazolinium bromide (MTT). MTT-test: after incubating culture medium was removed and 200 µL fresh medium with 20 µL MTT (2 mg/mL in HBSS) was added in each well of the plate. After incubation (3 hr., 37° C., 5% CO2), the medium with MTT was removed and 200 µL DMSO were added at once to each sample. The samples were tested at 540 nm on Thermo Scientific Multiskan EX microplate photometer. The half-maximal inhibitory concentration (IC50) of each compound was calculated using Graph Pad Prism® 3.0.

Data set [2] concerns HT-1080 (human fibrosarcoma). In words: MTT antiproliferative assay, 48 h. Type of data set: cell-based. Particulars: 48-hour exposition, read-out: Cytotoxicity, IC50, µM HT-1080. The method, then:
as §1
Background: Tetrazolium dyes change colour on reduction, which living cells bring about.

The test system of data set [3] is MCF-7 (human breast adenocarcinoma, estrogen-positive). Description: MTT antiproliferative assay, 48 h. Particulars: for IC50: Homo sapiens, MCF7, 48-hour exposition, read-out: Cytotoxicity, IC50, µM MCF-7. Type of data set: cell-based. The procedure: as §1
The subject of data set [4] is MDA-MB-231 (human mammary breast adenocarcinoma). Description: MTT antiproliferative assay, 48 h. Particulars: for IC50: Homo sapiens, MDA-MB-231, 48-hour exposition, read-out: Cytotoxicity, IC50, µM MDA-MB-231. Type of data set: cell-based. The method, then: as §1
In data set [5] the target is T1, PDI A1 (Homo sapiens, UniProt P07237).
T1 construct: purchased Mybiosource; host or cells: E. coli
In words: Insulin turbidometric assay, inhibition of PDI A1. Type of data set: biochemical. Particulars: insulin reduction, turbidity at 650 nm, 60 min incubation at 37° C.; read-out: Inhibition of PDI A1 (EC 50). The method, then: The inhibitory effects compounds of invention on activity of PDI A1 was assess based on the insulin turbidometric assay. Enzymatic activity of PDIA1 was confirmed by measuring the turbidity increase at 650 nm due to insulin reduction. The assay mixture was prepared by addition 10 ug/ml PDIA1 (E.coli recombinant protein; Mybiosource), 0.1 mM phosphate buffer (pH7.6), 1 mM EDTA, 0.087 mM DTT and with or without tested compound and was incubated for 60 min, at 37° C. Reaction was started by addition insulin and DTT. Final concentration of insulin and DTT in assay mixture was 0.15 mM and 0.174 mM, respectively. Turbidity was detected at 650 nm against reference samples without PDI A1s. The measurements were performed at 650 nm using 120-s recordings.

Data set [6] has as its system HT-29. Description: Sulforhodamine B antiproliferative assay, 72 h. Type of data set: cell-based, human. Particulars: normal (21% of oxygen), 72-hour exposition. The method, then:
(§2) Anticancer activity of PDI A1-inhibitors has been also tested in vitro in antiproliferative essay in normoxic and hypoxic conditions as well in estrogen-stimulated cancer cells. In the experiment, cells were seeded on 96-well plates (Sarstedt, Germany) in appropriate culture medium at a density of 10^5 cells/mL 24 h before adding the tested compounds. Cells were treated with each compound in four concentrations in the range 0.1-100 ug/mL. […] After 72 h of compound treatment at 37° C., 5 % CO2 humid atmosphere and in wo different oxygen level conditions: 21% - normal and <1% - hypoxia. In some experiments, the MDA-MB-231 and MCF-7 cells were seeded with or without 200 nM estradiol and after 24 h the tested compounds were added. A previously described sulforhodamine B antiproliferative assay was used with minor modifications (Skehan P et al., 1990). Briefly, cells were fixed with 50 µL/well of 50% (w/v) trichloroacetic acid (Avantor Performance Materials, Gliwice, Poland). After 1 h incubation, plates were washed several times with tap water and 50 µL of 0.4% (w/v) solution of sulforhodamine B (Sigma-Aldrich, Germany) in 1% (v/v) acetic acid (Avantor Performance Materials, Gliwice, Poland) was added to each well. After 30 min incubation at room temperature, unbound dye was washed out with 1% (v/v) acetic acid, whereas bound dye was solubilized with 10 mM unbuffered TRIS (Avantor Performance Materials, Gliwice, Poland) solution. The entire procedure was performed using a BioTek EL-406 washing station (BioTek Instruments, USA). After additional 30 min, absorbance was read using a Biotek Hybrid H4 reader (BioTek Instruments, USA) at 540 nm wavelength. MTT assay was used alternatively for HL-60 cell line and in the experiment in which estrogens are added (specified in the table legend). Absorbance was measured using a Biotek Hybrid H4 reader at 570 nm wavelength for MTT assay.
(§3) Compounds at each concentration were tested in triplicate in a single experiment and each experiment was repeated at least three times independently.
(§4) Results of in vitro antiproliferative effects are shown in Table 3 and Table 4 and are presented as mean IC50 ± SD calculated using the Prolab-3 system based on Cheburator 0.4 software.

The test system of data set [7] is MCF-7. Description: Sulforhodamine B antiproliferative assay, 72 h, normal and hypoxia. Particulars: 72-hour exposition. Type of data set: cell-based, human. The procedure: as §2, §3, §4
For data set [8], the system named is MDA-MB-231. The description is as above. Type of data set: cell-based, human. Particulars: 72-hour exposition. The method, then: as §2, §3, §4

In general, melting point refers to the temperature of the solid-liquid transition. The term IC50 denotes the point on the concentration scale where inhibition reaches its midpoint.

T1 sequence (P07237 18-508, species assumed): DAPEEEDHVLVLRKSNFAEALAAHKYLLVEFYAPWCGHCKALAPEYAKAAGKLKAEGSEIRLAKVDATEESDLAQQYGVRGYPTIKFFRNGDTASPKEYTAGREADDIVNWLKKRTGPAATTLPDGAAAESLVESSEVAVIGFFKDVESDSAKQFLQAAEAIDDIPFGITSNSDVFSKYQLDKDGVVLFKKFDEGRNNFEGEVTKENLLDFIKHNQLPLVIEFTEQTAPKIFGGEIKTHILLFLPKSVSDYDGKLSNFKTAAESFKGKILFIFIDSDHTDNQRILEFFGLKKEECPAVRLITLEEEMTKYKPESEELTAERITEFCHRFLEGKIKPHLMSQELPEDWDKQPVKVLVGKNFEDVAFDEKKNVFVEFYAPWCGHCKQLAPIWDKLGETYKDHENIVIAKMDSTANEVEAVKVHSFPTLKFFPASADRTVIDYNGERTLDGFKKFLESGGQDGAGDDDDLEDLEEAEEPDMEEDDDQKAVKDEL

Turning to `NC(=O)C1CN1S(=O)(=O)c1cccnc1` (stereo not shown) [Compound C-3562, 1-(3-pyridylsulfonyl)aziridine-2-carboxamide], the melting point fell in the range of 147 to 149 °C. Further, the IC50 in data set [1] worked out at 36 ± 6 µM. Also, in data set [2], the IC50 worked out at 31 ± 2 µM. The IC50 in data set [3] worked out at 57 ± 5 µM. Besides, the IC50 in [4] turned out to be 24 ± 2 µM. Further, the EC50 in data set [5] stood at 29 µM.
For the compound `COC(=O)[C@H]1CN1S(=O)(=O)c1ccc(C)cc1` (stereo partly drawn) [Compound C-3539, Methyl (2R)-1-(p-tolylsulfonyl)aziridine-2-carboxylate], the IC50 in [1] was determined as 23 ± 1 µM; in [2] it was 20 ± 1 µM; in data set [3] it was 113 ± 6 µM; in data set [4], 40 ± 5 µM. In addition, in data set [5], the EC50 worked out at 29 µM.
On the same counts, the results for `COC(=O)[C@@H]1CN1S(=O)(=O)c1cccc2cc(N(C)C)ccc12` (stereo partly drawn) [Compound C-3548, Methyl (2S)-1-[[6-(dimethylamino)-1-naphthyl]sulfonyl]aziridine-2-carboxylate] are 45 ± 13 µM, 9.2 ± 1 µM, 37 ± 3 µM, 57 ± 9 µM and 6 µM.
As for `COC(=O)C1CN1S(=O)(=O)c1cccnc1` (stereo not shown) [Compound C-3559, Methyl 1-(3-pyridylsulfonyl)aziridine-2-carboxylate], the half-maximal inhibitory concentration (IC50) in data set [1] stood at 260 ± 55 µM; in [2], 372 ± 23 µM; in [3], 154 ± 25 µM; in [4], 128 ± 8 µM. Moreover, the EC50 in data set [5] came to 10.6 µM.
On the same counts, the results for `Cc1ccc(S(=O)(=O)N2CC2C#N)cc1` (stereo not shown) [Compound C-3314, 1-(p-Tolylsulfonyl)aziridine-2-carbonitrile] are 14 ± 0.8 µM, 4.5 ± 1 µM, 206 ± 21 µM, 104 ± 3 µM and 4.1 µM.
Compound `NC(=O)C1CN1S(=O)(=O)c1ccc(N)cc1` (stereo not shown) [Compound C-3218, 1-(4-Aminophenyl)sulfonylaziridine-2-carboxamide] yielded a melting point of 139 to 141 °C. In addition, in data set [1], the IC50 was found to be 200 ± 1 µM. Further, the IC50 in data set [2] amounted to 200 ± 3 µM. Moreover, the IC50 in data set [3] is 137 ± 14 µM. Moreover, the IC50 in data set [4] was determined as 64 ± 5 µM. Further, the EC50 in data set [5] is over 200 µM.
As for `COC(=O)C1CN1S(=O)(=O)c1ccc(NC(C)=O)cc1` (stereo not shown) [Compound C-3308, Methyl 1-(4-acetamidophenyl)sulfonylaziridine-2-carboaylate], the IC50 in data set [1] was 100 ± 5 µM; in [2] it was 120 ± 6 µM; in [3], 485 ± 32 µM; in data set [4] it was over 500 µM. Further, the EC50 in data set [5] came out at 18 µM.
In turn, `COC(=O)C1CN1S(=O)(=O)c1ccc([N+](=O)[O-])cc1` (stereo not shown) [Compound C-3212, Methyl 1-(4-nitrophenyl)sulfonylaziridine-2-carboxylate] registered a melting point of 106 to 108 °C. Moreover, the EC50 in data set [5] came out at 34 µM.
Regarding `COC(=O)C1CN1S(=O)(=O)c1ccc2c(C=O)c(N(C)C)ccc2c1` (stereo not shown) [Compound C-3390, Methyl 1-[[6-(dimethylamino)-5-formyl-2-naphthyl]sulfonyl]aziridine-2-carboxylate], the IC50 in data set [1] is 11 ± 2 µM; in data set [2], 7.9 ± 0.9 µM; in [3], 20 ± 0.3 µM; in data set [4], 18 ± 0.1 µM. The EC50 in [5] amounted to 0.6 µM.
As for `N.N.[Cl][Pt][Cl]` [Cisplatin, reference compound], in data set [6], the “IC50 [µg/ml] HT-29 normal” value worked out at 2.82 ± 0.6 µg/mL. The “IC50 [µg/ml] MCF-7 hypoxia” value in data set [7] (hypoxia (<1% of oxygen)) was found to be 1.3 ± 0.5 µg/mL. The “IC50 [µg/ml] MCF-7 normal” value in data set [7] (normal (21% of oxygen)) came to 1.8 ± 0.3 µg/mL. Also, the “IC50 [µg/ml] MDA-MB-231 hypoxia” value in data set [8] (hypoxia (<1% of oxygen)) is 3.1 ± 0.9 µg/mL. For the same compound, the “IC50 [µg/ml] MDA-MB-231 normal” value in data set [8] (normal (21% of oxygen)) was determined as 3.2 ± 0.5 µg/mL.
Regarding `COC(=O)[C@H]1CN1S(=O)(=O)c1cccc2cc(N(C)C)ccc12` (stereo partly drawn) [Compound C-3570, Methyl (2R)-1-[[6-(dimethylamino)-1-naphthyl]sulfonyl]aziridine-2-carboxylate], the IC50 in data set [1] is 13 ± 1 µM; in data set [2], 12 ± 1 µM; in data set [3] it was 29 ± 2 µM; in data set [4], 14 ± 3 µM. Besides, the EC50 in [5] was 11 µM.
In the case of `COC(=O)C1CN1S(=O)(=O)c1ccc2oc(=O)ccc2c1` (stereo not shown) [Compound C-3355, Methyl 1-(2-oxochromen-6-yl)sulfonylaziridine-2-carboxylate], the melting point is 42 to 44 °C. In addition, the IC50 in data set [1] was 39 ± 1 µM. For the same compound, the IC50 in data set [2] worked out at 20 ± 1 µM. Also, the IC50 in data set [3] was 276 ± 9 µM. Besides, the IC50 in data set [4] came out at 247 ± 14 µM. Further, the EC50 in [5] was 7.7 µM.
In the case of `CNc1ccc2cc(S(=O)(=O)N3CC3C(=O)OC)ccc2c1Cl` (stereo not shown) [Compound C-3393, Methyl 1-[[5-chloro-6-(methylamino)-2-naphthyl]sulfonyl]aziridine-2-carboxylate], the melting point lay within 170 to 172 °C. In addition, the IC50 in [1] worked out at 35 ± 1 µM. Moreover, the IC50 in [2] amounted to 0.46 ± 0.04 µM. The IC50 in data set [3] stood at 29 ± 3 µM. Besides, in data set [4], the IC50 was 32 ± 4 µM. Also, the EC50 in [5] amounted to 0.34 µM.
With `CN(C)c1ccc2c(S(=O)(=O)N3CC3C(N)=O)cccc2c1` (stereo not shown) [Compound C-3459, 1-[[6-(Dimethylamino)-1-naphthyl]sulfonyl]aziridine-2-carboxamide], the melting point was in the range of 197 to 199 °C. For the same compound, the “Cytotoxicity, IC50, µM CaCo-2” value in data set [1] (48-hour exposition) is reported as “n.e”. In data set [2], the IC50 was over 500 µM. Also, the “Cytotoxicity, IC50, µM MCF-7” value in data set [3] (48-hour exposition) was “n.e”. In data set [4] (48-hour exposition), the “Cytotoxicity, IC50, µM MDA-MB-231” value is reported as “n.e”. Besides, the EC50 in data set [5] was found to be 33 µM.
Compound `COC(=O)C1CN1S(=O)(=O)c1ccc2[nH]c(=O)ccc2c1` (stereo not shown) [Compound C-3350, Methyl 1-[(2-oxo-1H-quinolin-6-yl)sulfonyl]aziridine-2-carboxylate] showed a melting point of 139 to 141 °C. For the same compound, the IC50 in data set [1] was determined as 49 ± 5 µM. In addition, the IC50 in [2] is 16 ± 5 µM. For the same compound, in data set [3], the IC50 worked out at 80 ± 8 µM. Also, in [4], the IC50 was determined as 136 ± 6 µM. For the same compound, in data set [5], the EC50 came to 5.5 µM.
As to `CCCCc1ccc(S(=O)(=O)N2CC2C(C)=O)cc1` (stereo not shown) [Compound C-3272, 1-[1-(4-Butylphenyl)sulfonylaziridin-2-yl] ethanone], the IC50 in data set [1] amounted to 57 ± 6 µM; in [2], 4.5 ± 0.9 µM; in data set [3] it was 26 ± 0.4 µM; in data set [4] it was 8.4 ± 0.9 µM. In [5], the EC50 came to 0.5 µM.
For the compound `CCCCc1ccc(S(=O)(=O)N2CC2C=O)cc1` (stereo not shown) [Compound C-3273, 1-(4-Butylphenyl)sulfonylaziridine-2-carbaldehyde], the IC50 came out at 56 ± 12 µM in [1], 31 ± 0.9 µM in [2], 92 ± 2 µM in [3] and 35 ± 3 µM in [4]. Besides, the EC50 in data set [5] came to 3 µM.

The values above are taken from patent publication US20230039836A1, “AROMATIC SULPHONAMIDES DERIVATIVES THAT INHIBITS PDI A3, THEIR SYNTHESIS AND USE” (Uniwersytet Jagiellonski, priority 2020, published 2023).
